Values quoted from earlier work, collected in patent US20110201657A1, “AMIDE SUBSTITUTED INDAZOLE AND BENZOTRIAZOLE DERIVATIVES AS POLY(ADP-RIBOSE)POLYMERASE (PARP) INHIBITORS” (Istituto di Ricerche di Biologia Molecolare P. Angeletti SpA, priority 2006, published 2011).

Test system: infarct size in the heart
Details: rabbits

Row | Structure (SMILES) | reduction in infarct size (single injection 1 mg/kg) | reduction in infarct size in the heart (single injection 10 mg/kg, one minute before occlusion or before reperfusion)
1 | Oc1cccc2c(O)nccc12 [1,5-dihydroxyisoquinoline] | 38-48% | –
2 | NC(=O)c1cccc(N)c1 [3-amino-benzamide] | – | 32-42%
